Patent US10213415B2, “Compounds as opioid receptor modulators” (JANSSEN PHARMACEUTICA NV, priority 2004, dated 2019)

How the values were obtained:
delta opioid receptor = target: T1, delta opioid receptor (Rattus norvegicus, UniProt P33533); assay: Rat Brain Delta Opioid Receptor Binding Assay-Version 1a ([3H]naltrindole); details: rat forebrain membranes, 0.1 nM [3H]naltrindole; margin of error 10-20%; read-out: r Ki δ Ver. 1a
T1 construct: from tissue; host or cells: forebrain of male Wistar rats
T1 sequence (P33533 whole entry): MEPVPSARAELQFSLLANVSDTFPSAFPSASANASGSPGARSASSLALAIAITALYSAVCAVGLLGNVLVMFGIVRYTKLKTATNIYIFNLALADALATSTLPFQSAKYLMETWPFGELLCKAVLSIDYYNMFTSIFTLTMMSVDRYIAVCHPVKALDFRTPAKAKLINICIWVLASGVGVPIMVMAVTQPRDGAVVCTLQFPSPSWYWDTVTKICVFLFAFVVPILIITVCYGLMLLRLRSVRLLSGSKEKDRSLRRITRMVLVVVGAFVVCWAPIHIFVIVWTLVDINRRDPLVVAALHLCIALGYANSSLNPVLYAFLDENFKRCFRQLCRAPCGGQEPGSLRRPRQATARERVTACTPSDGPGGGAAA
Method: Male, Wistar rats (150-250 g, VAF, Charles River, Kingston, N.Y.) were killed by cervical dislocation, and their brains removed and placed immediately in ice-cold Tris HCl buffer (50 mM, pH 7.4). The forebrains were separated from the remainder of the brain by a coronal transection, beginning dorsally at the colliculi and passing ventrally through the midbrain-pontine junction. After dissection, the forebrains were homogenized in Tris buffer in a Teflon®-glass homogenizer. The homogenate was diluted to a concentration of 1 g of forebrain tissue per 80 mL Tris and centrifuged at 39,000×g for 10 min. The pellet was resuspended in the same volume of Tris buffer containing 5 mM MgCl2 with several brief pulses from a Polytron homogenizer. This particulate preparation was used for the delta opioid binding assay. Following incubation with 0.1 nM of the delta selective ligand [^3H]naltrindole at 25° C. for 2.5 h in a 96-well plate with total 1 mL, the plate contents were filtered through Wallac filtermat B sheets on a Tomtec 96-well harvester. The filters were rinsed three times with 2 mL of 10 mM HEPES (pH 7.4), and dried in a microwave oven. To each sample area, Betaplate Scint scintillation fluid (LKB) was added and the resulting radioactivity quantified on a LKB (Wallac) 1205 BetaPlate liquid scintillation counter. Kd and Ki values were calculated using the GraphPad PRISM data analysis program.

mu opioid receptor = target: T2, mu opioid receptor (Rattus norvegicus, UniProt P33535); assay: Rat Brain Mu Opioid Receptor Binding Assay (and Version 2a, [3H]DAMGO); details: rat forebrain membranes, margin of error 10-20%, read-out: r Ki μ
T2 construct: from tissue; host or cells: forebrain of male Wistar rats
T2 sequence (P33535 whole entry): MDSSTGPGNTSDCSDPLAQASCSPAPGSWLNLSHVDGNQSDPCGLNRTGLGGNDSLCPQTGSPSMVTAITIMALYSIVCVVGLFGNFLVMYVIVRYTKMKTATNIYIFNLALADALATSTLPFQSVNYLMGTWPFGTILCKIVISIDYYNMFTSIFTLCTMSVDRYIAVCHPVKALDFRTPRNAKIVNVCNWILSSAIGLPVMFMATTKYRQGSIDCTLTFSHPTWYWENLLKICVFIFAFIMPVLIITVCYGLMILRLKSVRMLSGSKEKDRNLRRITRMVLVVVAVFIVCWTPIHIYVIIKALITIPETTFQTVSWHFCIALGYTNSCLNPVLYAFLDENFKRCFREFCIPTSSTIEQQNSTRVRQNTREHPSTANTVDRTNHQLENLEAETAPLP
How it was run: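 Displacement of the mu-selective radioligand [3H]DAMGO (0.8 nM) measured by filtration and scintillation counting after 2.5 h at 25° C. Membranes came from male Wistar rat forebrain in Tris-HCl (50 mM, pH 7.4) plus 5 mM MgCl2; Ki derived from concentration–response, % inhibition for single doses.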

human mu opioid receptor = target: T3, human mu opioid receptor (Homo sapiens, UniProt P35372); assay: Human Mu Opioid Receptor Binding Assay (CHO membranes, 3H-Damgo); details: read-out: hKi μ
T3 construct: purchased Perkin Elmer RBHOMM400UA; host or cells: Chinese Hamster Ovary cells (recombinant expression)
T3 sequence (P35372 whole entry): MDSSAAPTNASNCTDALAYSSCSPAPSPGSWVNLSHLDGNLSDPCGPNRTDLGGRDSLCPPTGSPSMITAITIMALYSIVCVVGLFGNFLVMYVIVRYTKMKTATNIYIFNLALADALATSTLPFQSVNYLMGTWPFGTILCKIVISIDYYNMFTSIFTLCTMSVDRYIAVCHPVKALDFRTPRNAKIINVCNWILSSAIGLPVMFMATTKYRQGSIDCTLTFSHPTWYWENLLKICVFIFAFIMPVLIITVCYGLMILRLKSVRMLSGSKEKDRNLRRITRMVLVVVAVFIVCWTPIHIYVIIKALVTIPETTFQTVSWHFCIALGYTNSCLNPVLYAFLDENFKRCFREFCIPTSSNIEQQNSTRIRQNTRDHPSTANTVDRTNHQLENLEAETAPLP
How it was run: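 Radioligand displacement of ³H-Damgo (diluted to 3.6 nM pre-mix) from recombinant human mu receptor in CHO membranes, 2 h, room temperature, 50 mM Tris pH 7.5 with 5 mM MgCl2. Bound label read by filtration and scintillation counting; 1 μM unlabelled Damgo defines nonspecific binding.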

| SMILES | Ki (delta opioid receptor) [nM] | Ki (mu opioid receptor) [nM] | Ki (human mu opioid receptor) [nM] |
| --- | --- | --- | --- |
| COc1ccc(CN(C(=O)[C@@H](N)Cc2c(C)cc(O)cc2C)[C@@H](C)c2nc(-c3ccccc3)c[nH]2)cc1C(=O)Nc1cccc(C(=O)O)c1 [Cpd 306] | 0.18 | 0.9 |  |
| COc1ccc(CN(C(=O)[C@@H](N)Cc2c(C)cc(O)cc2C)[C@@H](C)c2nc(-c3ccccc3)c[nH]2)cc1C(=O)Nc1ccc(C(=O)O)cc1 [Cpd 308] | 0.48 | 1.2 |  |
| COc1ccc(CN(C(=O)[C@@H](N)Cc2c(C)cc(O)cc2C)[C@@H](C)c2nc(-c3ccccc3)c[nH]2)cc1C(=O)Nc1ccccc1 [Cpd 305] | 1.24 | 0.2 |  |
| COc1ccc(CN(C(=O)[C@@H](N)Cc2c(C)cc(O)cc2C)[C@@H](C)c2nc(-c3ccccc3)c[nH]2)cc1-c1nnn[nH]1 [Cpd 307] | 0.07 | 0.4 |  |
| C[C@@H](c1nc(-c2ccccc2)c[nH]1)N(Cc1ccc(C(=O)O)o1)C(=O)[C@@H](N)Cc1ccc(C(N)=O)cc1 [Cpd 304] | 119 | 161 | 41 |
